Measurements taken from the supplement of paper PMC9549728.
Structures can show the parent of a compound that is named as a salt.

Columns and labels:
Experiment in all cases: IC50 (viability, PrestoBlue) (log10 nM)
Details in all cases: exposure time: 72 h
[1] = system: murine gastric organoid RAS-activated (Kras G12D; Tp53 R172H)
Experimental: (§1)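 Murine gastric corpus organoids (normal uninduced; RAS-activated Kras G12D/Tp53 R172H; diffuse Cdh1/Apc loss; WNT-activated Apc loss/Tp53 R172H) were seeded in Matrigel into pre-spotted 384-well plates. The plates held a 196-compound library at 6.7 nM to 25,004 nM (9 doses) and were incubated 72 h. Viability was read by PrestoBlue fluorescence (560/590 nm). IC50 came from non-linear regression (Prism), reported as log10 IC50 in nM, mean of 3 passages x 2 wells.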

[2] = system: murine gastric organoid diffuse (Cdh1 fl/fl; Apc fl/fl)
Experimental: as §1

[3] = system: murine gastric organoid WNT-activated (Apc fl/fl; Tp53 R172H)
Experimental: as §1

[4] = system: murine normal gastric organoid
Experimental: as §1

CCN1CCN(Cc2ccc(Nc3ncc(F)c(-c4cc(F)c5nc(C)n(C(C)C)c5c4)n3)nc2)CC1
IC50 (log10 nM) [1]: 2.88 | IC50 (log10 nM) [2]: 2.7 | IC50 (log10 nM) [3]: 2.47 | IC50 (log10 nM) [4]: 2.94

CCNC(=O)C[C@@H]1N=C(c2ccc(Cl)cc2)c2cc(OC)ccc2-n2c(C)nnc21
IC50 (log10 nM) [1]: 3.3 | IC50 (log10 nM) [2]: 3.13 | IC50 (log10 nM) [3]: 1.54 | IC50 (log10 nM) [4]: 2.77

COc1ccc(-c2cc3c(C)nc(N)nc3n([C@H]3CC[C@H](OCCO)CC3)c2=O)cn1
IC50 (log10 nM) [1]: 2.17 | IC50 (log10 nM) [2]: 2 | IC50 (log10 nM) [3]: 2.11 | IC50 (log10 nM) [4]: 2.08

Nc1ncn([C@@H]2O[C@H](CO)[C@@H](O)[C@H]2O)c(=O)n1 [5-Azacytidine]
IC50 (log10 nM) [1]: 3.64 | IC50 (log10 nM) [2]: 3.5 | IC50 (log10 nM) [3]: 3.58 | IC50 (log10 nM) [4]: 3.78

Nc1nc(=S)c2[nH]cnc2[nH]1 [6-Thioguanine]
IC50 (log10 nM) [1]: 3.8 | IC50 (log10 nM) [2]: 4.29 | IC50 (log10 nM) [3]: 1.35 | IC50 (log10 nM) [4]: 3.73

CC1(C)CCC(CN2CCN(c3ccc(C(=O)NS(=O)(=O)c4ccc(NCC5CCOCC5)c([N+](=O)[O-])c4)c(Oc4cnc5[nH]ccc5c4)c3)CC2)=C(c2ccc(Cl)cc2)C1 [ABT-199]
IC50 (log10 nM) [1]: 4.06 | IC50 (log10 nM) [2]: 4.17 | IC50 (log10 nM) [3]: 3.1 | IC50 (log10 nM) [4]: 3.61

Cc1c2oc3c(C)ccc(C(=O)N[C@@H]4C(=O)N[C@H](C(C)C)C(=O)N5CCC[C@H]5C(=O)N(C)CC(=O)N(C)[C@@H](C(C)C)C(=O)O[C@@H]4C)c3nc-2c(C(=O)N[C@@H]2C(=O)N[C@H](C(C)C)C(=O)N3CCC[C@H]3C(=O)N(C)CC(=O)N(C)[C@@H](C(C)C)C(=O)O[C@@H]2C)c(N)c1=O [Actinomycin D]
IC50 (log10 nM) [1]: < 0.826 | IC50 (log10 nM) [2]: < 0.826 | IC50 (log10 nM) [3]: < 0.826 | IC50 (log10 nM) [4]: < 0.826

CN(C)C/C=C/C(=O)Nc1cc2c(Nc3ccc(F)c(Cl)c3)ncnc2cc1O[C@H]1CCOC1 [Afatinib]
IC50 (log10 nM) [1]: 3.6 | IC50 (log10 nM) [2]: 1.95 | IC50 (log10 nM) [3]: 1.27 | IC50 (log10 nM) [4]: 1.55

COc1cc(Nc2ncc3c(n2)-c2ccc(Cl)cc2C(c2c(F)cccc2OC)=NC3)ccc1C(=O)O [Alisertib]
IC50 (log10 nM) [1]: 2 | IC50 (log10 nM) [2]: 2.98 | IC50 (log10 nM) [3]: 3.02 | IC50 (log10 nM) [4]: 2.47

CN(C)CCN1C(=O)c2cccc3cc(N)cc(c23)C1=O [Amonafide]
IC50 (log10 nM) [1]: 3.03 | IC50 (log10 nM) [2]: 3.23 | IC50 (log10 nM) [3]: 2.39 | IC50 (log10 nM) [4]: 3.1

CNC(=O)c1ccccc1Sc1ccc2c(/C=C/c3ccccn3)n[nH]c2c1 [Axitinib]
IC50 (log10 nM) [1]: 3.3 | IC50 (log10 nM) [2]: 3.78 | IC50 (log10 nM) [3]: 2.75 | IC50 (log10 nM) [4]: 3.98

O=C(/C=C/c1cccc(S(=O)(=O)Nc2ccccc2)c1)NO [Belinostat]
IC50 (log10 nM) [1]: 2.61 | IC50 (log10 nM) [2]: 3.29 | IC50 (log10 nM) [3]: 3.27 | IC50 (log10 nM) [4]: 3.2

Cn1cnc2c(F)c(Nc3ccc(Br)cc3F)c(C(=O)NOCCO)cc21 [Binimetinib]
IC50 (log10 nM) [1]: 2.28 | IC50 (log10 nM) [2]: 3.03 | IC50 (log10 nM) [3]: 2.96 | IC50 (log10 nM) [4]: 2.09

Cc1c(N)nc([C@H](CC(N)=O)NC[C@H](N)C(N)=O)nc1C(=O)N[C@H](C(=O)N[C@H](C)[C@@H](O)[C@H](C)C(=O)N[C@H](C(=O)NCCc1nc(-c2nc(C(=O)NCCC[S+](C)C)cs2)cs1)[C@@H](C)O)[C@@H](OC1OC(CO)C(O)C(O)C1OC1OC(CO)C(O)C(OC(N)=O)C1O)c1cnc[nH]1 (some centres not stated) [Bleomycin]
IC50 (log10 nM) [1]: 3.83 | IC50 (log10 nM) [2]: 3.57 | IC50 (log10 nM) [3]: > 4.4 | IC50 (log10 nM) [4]: 3.85

CC(C)C[C@H](NC(=O)[C@H](Cc1ccccc1)NC(=O)c1cnccn1)B(O)O [Bortezomib]
IC50 (log10 nM) [1]: 0.871 | IC50 (log10 nM) [2]: 1.1 | IC50 (log10 nM) [3]: 1.16 | IC50 (log10 nM) [4]: 1.14

COc1cc(Nc2c(C#N)cnc3cc(OCCCN4CCN(C)CC4)c(OC)cc23)c(Cl)cc1Cl [Bosutinib]
IC50 (log10 nM) [1]: 3.57 | IC50 (log10 nM) [2]: 3.58 | IC50 (log10 nM) [3]: 3.01 | IC50 (log10 nM) [4]: 3.96

N#CCNC(=O)c1ccc(-c2ccnc(Nc3ccc(N4CCOCC4)cc3)n2)cc1 [CYT387]
IC50 (log10 nM) [1]: 3.51 | IC50 (log10 nM) [2]: 3.58 | IC50 (log10 nM) [3]: 4.05 | IC50 (log10 nM) [4]: 3.48

C=CC(=O)Nc1cc2c(Nc3ccc(F)c(Cl)c3)ncnc2cc1OCCCN1CCOCC1 [Canertinib]
IC50 (log10 nM) [1]: 3.85 | IC50 (log10 nM) [2]: 2.6 | IC50 (log10 nM) [3]: 2.17 | IC50 (log10 nM) [4]: 2.35

CC(C)C[C@H](NC(=O)[C@H](CCc1ccccc1)NC(=O)CN1CCOCC1)C(=O)N[C@@H](Cc1ccccc1)C(=O)N[C@@H](CC(C)C)C(=O)[C@@]1(C)CO1 [Carfilzomib]
IC50 (log10 nM) [1]: 1.16 | IC50 (log10 nM) [2]: 1.04 | IC50 (log10 nM) [3]: 1.32 | IC50 (log10 nM) [4]: 1.16

COc1cc2c(Oc3ccc4[nH]c(C)cc4c3F)ncnc2cc1OCCCN1CCCC1 [Cediranib maleate]
IC50 (log10 nM) [1]: 2.93 | IC50 (log10 nM) [2]: 2.67 | IC50 (log10 nM) [3]: < 0.826 | IC50 (log10 nM) [4]: 3.38

O=C(O)CCCc1ccc(N(CCCl)CCCl)cc1 [Chlorambucil]
IC50 (log10 nM) [1]: 2.93 | IC50 (log10 nM) [2]: 2.48 | IC50 (log10 nM) [3]: 3.92 | IC50 (log10 nM) [4]: 3.32

N.N.[Cl][Pt][Cl] [Cisplatin]
IC50 (log10 nM) [1]: 3.54 | IC50 (log10 nM) [2]: 3.13 | IC50 (log10 nM) [3]: 3.59 | IC50 (log10 nM) [4]: 3

Nc1nc(Cl)nc2c1ncn2[C@H]1C[C@H](O)[C@@H](CO)O1 [Cladribine]
IC50 (log10 nM) [1]: 3.08 | IC50 (log10 nM) [2]: 3.04 | IC50 (log10 nM) [3]: 3.27 | IC50 (log10 nM) [4]: 3.19

Nc1nc(Cl)nc2c1ncn2[C@@H]1O[C@H](CO)[C@@H](O)[C@@H]1F [Clofarabine]
IC50 (log10 nM) [1]: 3.04 | IC50 (log10 nM) [2]: 2.97 | IC50 (log10 nM) [3]: 3.27 | IC50 (log10 nM) [4]: 3.15

O=C(c1ccc(F)c(F)c1Nc1ccc(I)cc1F)N1CC(O)([C@@H]2CCCCN2)C1 [Cobimetinib]
IC50 (log10 nM) [1]: 1.75 | IC50 (log10 nM) [2]: 1.74 | IC50 (log10 nM) [3]: 1.82 | IC50 (log10 nM) [4]: 1.45

COc1c(OCCCN2CCOCC2)ccc2c1N=C(NC(=O)c1cnc(N)nc1)N1CCN=C21 [Copanlisib]
IC50 (log10 nM) [1]: 2 | IC50 (log10 nM) [2]: 2.23 | IC50 (log10 nM) [3]: 1.96 | IC50 (log10 nM) [4]: 1.94

C[C@@H](Oc1cc(-c2cnn(C3CCNCC3)c2)cnc1N)c1c(Cl)ccc(F)c1Cl [Crizotinib]
IC50 (log10 nM) [1]: 2.96 | IC50 (log10 nM) [2]: 3.22 | IC50 (log10 nM) [3]: 2.95 | IC50 (log10 nM) [4]: 3.4

Nc1ccn([C@@H]2O[C@H](CO)[C@@H](O)[C@@H]2O)c(=O)n1 [Cytarabine]
IC50 (log10 nM) [1]: 2.07 | IC50 (log10 nM) [2]: 2.71 | IC50 (log10 nM) [3]: 2.9 | IC50 (log10 nM) [4]: 2.33

Cc1nc(Nc2ncc(C(=O)Nc3c(C)cccc3Cl)s2)cc(N2CCN(CCO)CC2)n1 [Dasatinib hydrochloride]
IC50 (log10 nM) [1]: 1.86 | IC50 (log10 nM) [2]: 2.3 | IC50 (log10 nM) [3]: 1.29 | IC50 (log10 nM) [4]: 2.05

COc1cccc2c1C(=O)c1c(O)c3c(c(O)c1C2=O)C[C@@](O)(C(C)=O)C[C@@H]3O[C@H]1C[C@H](N)[C@H](O)[C@H](C)O1 [Daunorubicin hydrochloride]
IC50 (log10 nM) [1]: 1.6 | IC50 (log10 nM) [2]: 1.77 | IC50 (log10 nM) [3]: 1.73 | IC50 (log10 nM) [4]: 1.56

Nc1ncn([C@H]2C[C@H](O)[C@@H](CO)O2)c(=O)n1 [Decitabine]
IC50 (log10 nM) [1]: > 4.4 | IC50 (log10 nM) [2]: 3.85 | IC50 (log10 nM) [3]: 3.34 | IC50 (log10 nM) [4]: 2.9

CCc1cnn2c(NCc3ccc[n+]([O-])c3)cc(N3CCCC[C@H]3CCO)nc12 [Dinaciclib]
IC50 (log10 nM) [1]: > 4.4 | IC50 (log10 nM) [2]: 4.11 | IC50 (log10 nM) [3]: 4.28 | IC50 (log10 nM) [4]: > 4.4

CN1CCN(c2ccc3nc(-c4c(N)c5c(F)cccc5[nH]c4=O)[nH]c3c2)CC1 [Dovitinib]
IC50 (log10 nM) [1]: 3.46 | IC50 (log10 nM) [2]: 3.4 | IC50 (log10 nM) [3]: 3.41 | IC50 (log10 nM) [4]: 3.21

COc1cccc2c1C(=O)c1c(O)c3c(c(O)c1C2=O)C[C@@](O)(C(=O)CO)C[C@@H]3O[C@H]1C[C@H](N)[C@H](O)[C@H](C)O1 [Doxorubicin]
IC50 (log10 nM) [1]: 2.14 | IC50 (log10 nM) [2]: 2.23 | IC50 (log10 nM) [3]: 2.2 | IC50 (log10 nM) [4]: 2.02

Nc1ccccc1NC(=O)c1ccc(CNC(=O)OCc2cccnc2)cc1 [Entinostat]
IC50 (log10 nM) [1]: 3.36 | IC50 (log10 nM) [2]: 3.39 | IC50 (log10 nM) [3]: 3.99 | IC50 (log10 nM) [4]: 4.22

C#Cc1cccc(Nc2ncnc3cc(OCCOC)c(OCCOC)cc23)c1 [Erlotinib]
IC50 (log10 nM) [1]: > 4.4 | IC50 (log10 nM) [2]: 2.97 | IC50 (log10 nM) [3]: 2.67 | IC50 (log10 nM) [4]: 2.58

COc1cc([C@@H]2c3cc4c(cc3[C@@H](O[C@@H]3O[C@@H]5CO[C@@H](C)O[C@H]5[C@H](O)[C@H]3O)[C@H]3COC(=O)[C@H]23)OCO4)cc(OC)c1O [Etoposide]
IC50 (log10 nM) [1]: 2.89 | IC50 (log10 nM) [2]: 3.06 | IC50 (log10 nM) [3]: 3.07 | IC50 (log10 nM) [4]: 2.67

CO[C@H]1C[C@@H]2CC[C@@H](C)[C@@](O)(O2)C(=O)C(=O)N2CCCC[C@H]2C(=O)O[C@H]([C@H](C)C[C@@H]2CC[C@@H](OCCO)[C@H](OC)C2)CC(=O)[C@H](C)/C=C(\C)[C@@H](O)[C@@H](OC)C(=O)[C@H](C)C[C@H](C)/C=C/C=C/C=C/1C [Everolimus]
IC50 (log10 nM) [1]: 3.26 | IC50 (log10 nM) [2]: 3.31 | IC50 (log10 nM) [3]: 3.26 | IC50 (log10 nM) [4]: 3.4
